Experimental data: ChEMBL document CHEMBL1821686, “Structure-based optimization of potent 4- and 6-azaindole-3-carboxamides as renin inhibitors” (Bioorg Med Chem Lett, 2011)

Experiments:
Renin [1] = target: T1, Renin (Homo sapiens, UniProt P00797)
T1 sequence (P00797 whole entry): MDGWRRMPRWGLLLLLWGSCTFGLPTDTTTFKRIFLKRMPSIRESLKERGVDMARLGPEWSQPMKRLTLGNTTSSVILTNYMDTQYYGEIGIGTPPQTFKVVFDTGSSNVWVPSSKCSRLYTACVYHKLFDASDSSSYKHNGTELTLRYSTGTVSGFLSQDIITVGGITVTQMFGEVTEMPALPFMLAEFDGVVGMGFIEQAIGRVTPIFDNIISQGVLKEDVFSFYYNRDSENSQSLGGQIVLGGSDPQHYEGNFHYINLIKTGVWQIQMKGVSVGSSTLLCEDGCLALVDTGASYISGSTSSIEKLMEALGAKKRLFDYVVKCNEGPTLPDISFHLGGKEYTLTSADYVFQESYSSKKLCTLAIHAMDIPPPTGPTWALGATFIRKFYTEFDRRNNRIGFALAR

Renin [2] = target: T1, Renin; assay: Inhibition of human recombinant renin using dabcyl-gamma-Abu-Ile-His-Pro-Phe-His-Leu-Val-Ile-His-Thr-EDANS as substrate preincubated for 30 mins after measured after 30 mins by fluorescence assay in presence of human plasma
Renin [3] = target: T1, Renin; assay: Inhibition of human recombinant renin using dabcyl-gamma-Abu-Ile-His-Pro-Phe-His-Leu-Val-Ile-His-Thr-EDANS as substrate preincubated for 30 mins after measured after 30 mins by fluorescence assay in presence of C57BL/6 mouse plasma
[4] = Apparent permeability from apical to basolateral side of human Caco2 cells at 20 uM after 2 hrs; conditions: Caco-2

| Compound | IC50 (Renin [1]) [nM] | other results |
| --- | --- | --- |
| Cc1ccc(C)c(Oc2c(C(=O)N3CCNCC3)c3ncccc3n2-c2ccccc2)c1 | 692 |  |
| Cc1cccc(F)c1Oc1c(C(=O)N2CCNCC2)c2ncccc2n1-c1ccccc1 | 74 |  |
| Cc1ccc(F)cc1Oc1c(C(=O)N2CCNCC2)c2ncccc2n1-c1ccccc1 | 24 |  |
| Cc1cc(F)c(F)cc1Oc1c(C(=O)N2CCNCC2)c2ncccc2n1-c1ccccc1 | 322 |  |
| Cc1c(F)cc(F)cc1Oc1c(C(=O)N2CCNCC2)c2ncccc2n1-c1ccccc1 | 107 |  |
| Cc1cccc(C)c1Oc1c(C(=O)N2CCNCC2)c2ncccc2n1-c1ccccc1 | 14 | IC50 (Renin [2]): 30 nM; IC50 (Renin [3]): 15 nM; Papp A→B at 2 h, 20 µM [4]: 0.28 ×10⁻⁶ cm/s |
| O=C(c1c(Cc2ccccc2)n(-c2ccccc2)c2cccnc12)N1CCNCC1 | 939 |  |
| O=C(c1c(Cc2cccc(F)c2F)n(-c2ccccc2)c2cccnc12)N1CCNCC1 | 1460 |  |
| Cc1cc(F)cc(C)c1Cc1c(C(=O)N2CCNCC2)c2ncccc2n1-c1ccccc1 | 246 |  |
| Cc1c(F)cccc1Cc1c(C(=O)N2CCNCC2)c2ncccc2n1-c1ccccc1 | 12 |  |
| Cc1cccc(C)c1Oc1c(C(=O)N2CCNCC2)c2ncccc2n1C1CCCCC1 | 4 |  |
| Cc1cccc(C)c1Oc1c(C(=O)N2CCN[C@@H](C)C2)c2ncccc2n1-c1ccccc1 | 60 |  |
| Cc1cccc(C)c1Oc1c(C(=O)N2CCN[C@@H](CO)C2)c2ncccc2n1-c1ccccc1 | 143 |  |
| CC[C@H]1CN(C(=O)c2c(Oc3c(C)cccc3C)n(-c3ccccc3)c3cccnc23)CCN1 | 455 |  |
| CCC[C@H]1CN(C(=O)c2c(Oc3c(C)cccc3C)n(-c3ccccc3)c3cccnc23)CCN1 | 1180 |  |
| Cc1cccc(C)c1Oc1c(C(=O)N2CCNC[C@@H]2Cc2ccccc2)c2ncccc2n1-c1ccccc1 | 152 |  |
| COc1ccc2c(n1)c(C(=O)N1CCNCC1)c(Oc1cc(F)ccc1C)n2-c1ccccc1 | 6630 |  |
| Cc1ccc(F)cc1Oc1c(C(=O)N2CCNCC2)c2nc(O)ccc2n1-c1ccccc1 | > 5000 |  |
| Cc1cccc(C)c1Oc1c(C(=O)N2CCNCC2)c2ncc(O)cc2n1-c1ccccc1 | 3 |  |
| CCOc1cnc2c(C(=O)N3CCNCC3)c(Oc3c(C)cccc3C)n(-c3ccccc3)c2c1 | 80 |  |
| Cc1cnc2c(C(=O)N3CCNCC3)c(Cc3cccc(F)c3C)n(-c3ccccc3)c2c1 | 9 |  |
| Cc1ccccc1Oc1c(C(=O)N2CCNCC2)c2ccncc2n1-c1ccccc1 | 494 |  |
| Cc1ccc(F)cc1Oc1c(C(=O)N2CCNCC2)c2ccncc2n1-c1ccccc1 | 27 |  |
| O=C(c1c(Cc2ccccc2)n(-c2ccccc2)c2cnccc12)N1CCNCC1 | 761 |  |
| Cc1c(F)cccc1Cc1c(C(=O)N2CCNCC2)c2ccncc2n1-c1ccccc1 | 14 | IC50 (Renin [2]): 25 nM; IC50 (Renin [3]): 26 nM; Papp A→B at 2 h, 20 µM [4]: 1.27 ×10⁻⁶ cm/s |
| CCc1nccc2c(C(=O)N3CCNCC3)c(Oc3cc(F)ccc3C)n(-c3ccccc3)c12 | 423 |  |
| Cc1ccc(F)cc1Oc1c(C(=O)N2CCNCC2)c2ccnc(Cc3ccccc3)c2n1-c1ccccc1 |  | IC50 (Renin [2]): 226 nM; IC50 (Renin [3]): 192 nM; Papp A→B at 2 h, 20 µM [4]: 3.9 ×10⁻⁶ cm/s |
| Cc1cccc(C)c1Oc1c(C(=O)N2CCNCC2)c2ccnc(Cl)c2n1-c1ccccc1 | 517 |  |
| Cc1c(F)cccc1Cc1nccc2c(C(=O)N3CCNCC3)c(Cc3cccc(F)c3C)n(-c3ccccc3)c12 | 5 |  |
| CCCCC1CN(C(=O)c2c(Oc3c(C)cccc3C)n(-c3ccccc3)c3cccnc23)CCN1 (racemic) | 285 |  |

Now from value to molecule, other results behind:

| IC50 (Renin [1]) [nM] | Compound | other results |
| --- | --- | --- |
| 513 | O=C(c1c(Oc2ccccc2F)n(-c2ccccc2)c2cccnc12)N1CCNCC1 |  |
| 310 | O=C(c1c(Oc2cccc(F)c2F)n(-c2ccccc2)c2cccnc12)N1CCNCC1 |  |
| 202 | O=C(c1c(Oc2cc(F)ccc2F)n(-c2ccccc2)c2cccnc12)N1CCNCC1 |  |
| 57 | Cc1c(F)cccc1Oc1c(C(=O)N2CCNCC2)c2ncccc2n1-c1ccccc1 |  |
| 55 | O=C(c1c(Oc2cc(F)ccc2Cl)n(-c2ccccc2)c2cccnc12)N1CCNCC1 |  |
| 1.3 | Cc1ccc(F)c(C)c1Oc1c(C(=O)N2CCNCC2)c2ncccc2n1-c1ccccc1 | IC50 (Renin [3]): 36 nM; Papp A→B at 2 h, 20 µM [4]: 4.3 ×10⁻⁶ cm/s |
| 61 | Cc1cccc(C)c1Sc1c(C(=O)N2CCNCC2)c2ncccc2n1-c1ccccc1 |  |
| 80 | Cc1cccc(C)c1Oc1c(C(=O)N2CCN[C@@H](C)C2)c2ncccc2n1C1CCCCC1 |  |
| 390 | Cc1cccc(C)c1Oc1c(C(=O)N2CCN[C@@H](CO)C2)c2ncccc2n1C1CCCCC1 |  |
| 694 | COC[C@H]1CN(C(=O)c2c(Oc3c(C)cccc3C)n(C3CCCCC3)c3cccnc23)CCN1 |  |
| 2710 | Cc1cccc(C)c1Oc1c(C(=O)N2CCN[C@@H](C(C)C)C2)c2ncccc2n1-c1ccccc1 |  |
| 14 | Cc1cnc2c(C(=O)N3CCNCC3)c(Oc3cc(F)ccc3C)n(-c3ccccc3)c2c1 |  |
| 590 | COc1ccc2c(n1)c(C(=O)N1CCNCC1)c(Cc1cccc(F)c1C)n2-c1ccccc1 |  |
| 1600 | Cc1c(F)cccc1Cc1c(C(=O)N2CCNCC2)c2nc(O)ccc2n1-c1ccccc1 |  |
| 112 | Cc1cccc(C)c1Oc1c(C(=O)N2CCNCC2)c2ccncc2n1-c1ccccc1 |  |
| 2 | Cc1ccc(F)c(C)c1Oc1c(C(=O)N2CCNCC2)c2ccncc2n1-c1ccccc1 |  |
